Patent publication US10683297B2 (Sunshine Lake Pharma Co., Ltd., priority 2017, dated 2020)
Marks after values point to notes of the source that are not given here. Blank lines part the entries; values can stand above or below the molecule they belong to.

Experiments:
[1] = biological target: T1, Aurora-B (h) (Homo sapiens, UniProt Q96GD4); assay: Aurora-B (h) kinase assay; assay type: biochemical; conditions: [γ-33P-ATP] 10 μM or KM values; 40 minutes at room temperature
T1 construct: purchased Millipore UK Ltd (assays performed there as a service)
Experimental: (§1) The above assay procedure can be used to determine the IC50 for inhibition and/or the inhibition constant, Ki. […] The IC50 value is estimated by preparing a 10 point curve using a ½ log dilution series (for example, a typical curve may be prepared using the following compound concentrations: 3 μM, 1 μM, 0.3 μM, 0.1 μM, 0.03 μM, 0.01 μM, 0.003 μM, 0.001 μM, 0.0003 μM and 0 μM).
(§2) Aurora-B (h) is incubated with 8 mM MOPS pH 7.0, 0.2 mM EDTA, 30 μM […], 10 mM MgAcetate and [γ-^33PATP] […] The reaction is initiated by the addition of the MgATP mix. After incubation for 40 minutes at room temperature, the reaction is stopped by the addition of a 3% phosphoric acid solution. 10 μL of the reaction is then spotted onto a P30 filtermat and washed three times for 5 minutes in 75 mM phosphoric acid and once in methanol prior to drying and scintillation counting.
(§3) The kinase assays described herein were performed at Millipore UK Ltd, Dundee Technology Park, Dundee DD2 1SW, UK.

[2] = Compound stability in human liver microsomes; assay type: in vitro ADME; conditions: for half-life at 5 μM: human liver microsomes 0.5 mg protein/mL, compound 5 μM, NADPH 1.0 mM, pH 7.4, 37° C., read-out: Human T1/2; for CLint scaled at 5 μM: liver microsomes, pH 7.4, in vivo CLint extrapolated from human liver microsome incubation
Outline: (§4)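 Compounds (5 μM) incubated at 37 °C with human or rat liver microsomes (0.5 mg protein/mL) and 1.0 mM NADPH in 100 mM phosphate buffer pH 7.4, 0.05% DMSO, in duplicate. Sampled 0–60 min, quantified by LC/MS/MS as % of time zero; CLint extrapolated.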

[3] = Compound stability in rat liver microsomes; assay type: in vitro ADME; conditions: for CLint scaled at 5 μM: liver microsomes, pH 7.4, in vivo CLint extrapolated from rat liver microsome incubation; for half-life at 5 μM: rat liver microsomes 0.5 mg protein/mL, compound 5 μM, NADPH 1.0 mM, pH 7.4, 37° C., read-out: Rat T1/2
Outline: as §4

[4] = biological target: T2, JAK1 (h) (Homo sapiens, UniProt P23458); assay: JAK1 (h) kinase assay; assay type: biochemical; conditions: [γ-33P-ATP] 10 μM or KM values; 40 minutes at room temperature
T2 construct: purchased Millipore UK Ltd (assays performed there as a service)
Outline: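 Radiometric filter-binding assay: human JAK1 incubated 40 min at room temperature in 20 mM Tris/HCl pH 7.5, 0.2 mM EDTA, 500 μM peptide substrate, 10 mM Mg acetate, with [γ-33P]ATP at 10 μM or KM. Reaction stopped with phosphoric acid; P30 filtermat scintillation counting.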

[5] = biological target: T3, JAK2 (h) (Homo sapiens, UniProt O60674); assay: JAK2 (h) kinase assay; assay type: biochemical; conditions: [γ-33P-ATP] 10 μM or KM values; 40 minutes at room temperature
T3 construct: purchased Millipore UK Ltd (assays performed there as a service)
Experimental: Kinase assays can be performed by measurement of incorporation of γ-^33P ATP into immobilized myelin basic protein (MBP). High binding white 384 well plates (Greiner) are coated with MBP (Sigma # M-1891) by incubation of 60 μL well of 20 μg/mL MBP in Tris-buffered saline (TBS; 50 mM Tris pH 8.0, 138 mM NaCl, 2.7 mM KCl) for 24 h at 4° C. Plates are washed 3× with 100 μL TBS. Kinase reactions are carried out in a total volume of 34 μL in kinase buffer (according to the need to make, for example, 5 mM Hepes pH 7.6, 15 mM NaCl, 0.01% bovine gamma globulin (Sigma #1-5506), 10 mM MgCl2, 1 mM DTT, 0.02% TritonX-100). Compound dilutions are performed in DMSO and added to assay wells to a final DMSO concentration of 1%. Each data point is measured in duplicate, and at least two duplicate assays are performed for each individual compound determination. Enzyme is added to final concentrations of 10 nM or 20 nM, for example. A mixture of unlabeled ATP and γ-^33P ATP is added to start the reaction (2×10^6 cpm of γ-^33P ATP per well (3000 Ci/mmole) and 10 μM unlabeled ATP, typically. The reactions are carried out for 1 hour at room temperature with shaking. Plates are washed 7× with TBS, followed by the addition of 50 μL well scintillation fluid (Wallac). Plates are read using a Wallac Trilux counter. This is only one format of such assays; various other formats are possible, as known to one skilled in the art.
as §1
as §2, with “JAK2 (h)” for “Aurora-B (h)”, “EDTA, 100” for “EDTA, 30”, “and [γ-^33P-ATP]” for “and [γ-^33PATP]”, “of” for “of a”
as §3

[6] = test system: PMA-induced increase in mouse ear thickness and weight; assay: Topical PMA-induced acute atopic dermatitis in ICR mice; assay type: in vivo; conditions: ICR female mice, 0.3 mg/ear/bid topical; for thickness (right ear) / Weight (right ear): 30 minutes before and 15 minutes after PMA, Mean±Sem; for thickness (right ear) / thickness Inhibition ratio: 6 hours after PMA
Experimental: ICR female mice (20-30 g), five mice or nine mice/group, were used in this study. Five micrograms of PMA (phorbol 12-myristate 13-acetate) in 20 μL of ethanol was applied topically to the anterior and posterior surface of the right ear of each mouse. Twenty microliters of vehicle (ethanol/acetone ([…])=1/1); 0.3 mg of EX. 68 ([…]); EX. 76, EX. 50, EX. 92 or EX. 65 (0.3 mg […]) were administrated to the same areas 30 minutes before and 15 minutes after PMA application. The thickness of right ears of each mouse was measured 6 hours after PMA stimulation. Ear weight of right ears of each mouse was weighed with analytical balance Each value represents the Mean±Sem. Statistical significance compared with model groups (*P<0.05; **P<0.01). Tables 5-1, 5-2 and 5-3 listed the inhibitory effect on PMA-induced increase in mouse ear thickness and weight. The compounds of the present invention have a good inhibitory effect on PMA-induced increase in mouse ear thickness and weight.

[7] = Pharmacokinetics after intravenous and oral administration in rats; assay type: in vivo
Outline: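 Rats dosed i.v. (about 0.5, 0.6, 1 or 2 mg/kg) or p.o. (5 or 10 mg/kg) as solution, suspension or capsule. Plasma sampled over 24 h and quantified by LC/MS/MS in MRM mode with ESI.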

[8] = rat, plasma, iv dosing, dose 1 mg/kg (Ex. 9: 0.6, Ex. 18: 0.5, Ex. 50: 0.96 mg/kg)

T2 sequence (P23458 whole entry): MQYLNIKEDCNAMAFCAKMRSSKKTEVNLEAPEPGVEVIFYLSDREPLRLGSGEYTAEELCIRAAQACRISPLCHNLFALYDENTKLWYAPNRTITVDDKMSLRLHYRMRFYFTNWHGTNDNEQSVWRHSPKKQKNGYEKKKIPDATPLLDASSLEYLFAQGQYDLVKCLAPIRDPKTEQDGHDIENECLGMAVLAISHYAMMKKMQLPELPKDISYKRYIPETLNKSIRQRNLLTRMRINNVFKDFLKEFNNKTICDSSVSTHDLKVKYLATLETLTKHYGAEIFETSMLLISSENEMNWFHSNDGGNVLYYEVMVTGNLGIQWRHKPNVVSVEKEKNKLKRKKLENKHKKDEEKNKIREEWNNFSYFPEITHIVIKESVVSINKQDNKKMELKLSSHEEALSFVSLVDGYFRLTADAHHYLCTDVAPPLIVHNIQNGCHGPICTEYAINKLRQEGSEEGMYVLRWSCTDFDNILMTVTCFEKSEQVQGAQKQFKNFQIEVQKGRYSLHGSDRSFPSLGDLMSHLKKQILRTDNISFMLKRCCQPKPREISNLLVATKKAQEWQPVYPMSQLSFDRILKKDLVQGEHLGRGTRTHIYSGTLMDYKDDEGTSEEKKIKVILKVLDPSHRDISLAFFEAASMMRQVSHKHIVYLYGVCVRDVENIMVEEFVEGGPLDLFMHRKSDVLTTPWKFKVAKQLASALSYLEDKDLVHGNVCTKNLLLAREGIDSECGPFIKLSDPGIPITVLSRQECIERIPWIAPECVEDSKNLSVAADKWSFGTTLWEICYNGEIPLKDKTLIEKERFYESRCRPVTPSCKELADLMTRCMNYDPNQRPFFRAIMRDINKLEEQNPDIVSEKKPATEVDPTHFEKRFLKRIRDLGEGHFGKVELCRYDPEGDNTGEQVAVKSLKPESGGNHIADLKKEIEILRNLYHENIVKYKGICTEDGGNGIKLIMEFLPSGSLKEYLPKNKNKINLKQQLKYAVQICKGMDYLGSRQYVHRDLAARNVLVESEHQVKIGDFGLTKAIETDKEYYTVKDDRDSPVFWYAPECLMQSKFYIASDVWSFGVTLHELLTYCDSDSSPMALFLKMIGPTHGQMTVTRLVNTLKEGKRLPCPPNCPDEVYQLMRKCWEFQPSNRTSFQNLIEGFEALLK
T3 sequence (O60674 whole entry): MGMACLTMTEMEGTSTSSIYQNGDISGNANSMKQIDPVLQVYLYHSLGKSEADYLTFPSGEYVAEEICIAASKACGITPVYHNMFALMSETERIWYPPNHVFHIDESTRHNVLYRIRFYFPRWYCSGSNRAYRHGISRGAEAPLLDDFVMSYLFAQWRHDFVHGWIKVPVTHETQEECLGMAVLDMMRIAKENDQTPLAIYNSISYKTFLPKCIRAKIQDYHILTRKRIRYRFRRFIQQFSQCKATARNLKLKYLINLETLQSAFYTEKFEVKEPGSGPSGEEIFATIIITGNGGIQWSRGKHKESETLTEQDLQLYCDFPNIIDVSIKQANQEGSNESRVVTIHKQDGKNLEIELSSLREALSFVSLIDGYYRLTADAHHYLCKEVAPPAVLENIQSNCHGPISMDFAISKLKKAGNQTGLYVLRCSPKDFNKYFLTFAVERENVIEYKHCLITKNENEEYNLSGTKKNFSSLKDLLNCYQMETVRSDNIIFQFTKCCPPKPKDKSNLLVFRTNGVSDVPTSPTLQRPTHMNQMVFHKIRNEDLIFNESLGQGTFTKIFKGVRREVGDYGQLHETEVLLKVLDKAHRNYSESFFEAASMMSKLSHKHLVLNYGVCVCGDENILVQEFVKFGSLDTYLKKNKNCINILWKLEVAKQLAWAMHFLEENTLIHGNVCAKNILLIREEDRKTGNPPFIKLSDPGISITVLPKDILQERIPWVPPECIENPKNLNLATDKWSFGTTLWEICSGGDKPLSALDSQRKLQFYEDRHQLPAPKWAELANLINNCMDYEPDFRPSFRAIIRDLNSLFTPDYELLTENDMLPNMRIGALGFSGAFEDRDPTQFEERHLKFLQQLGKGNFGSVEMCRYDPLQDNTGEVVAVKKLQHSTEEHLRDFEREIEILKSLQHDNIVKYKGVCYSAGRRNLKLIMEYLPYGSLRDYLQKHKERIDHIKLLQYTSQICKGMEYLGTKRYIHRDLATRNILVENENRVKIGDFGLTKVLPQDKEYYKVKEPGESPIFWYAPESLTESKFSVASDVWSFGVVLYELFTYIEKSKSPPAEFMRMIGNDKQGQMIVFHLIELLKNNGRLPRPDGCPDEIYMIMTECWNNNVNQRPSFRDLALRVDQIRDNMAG
T1 sequence (Q96GD4 whole entry): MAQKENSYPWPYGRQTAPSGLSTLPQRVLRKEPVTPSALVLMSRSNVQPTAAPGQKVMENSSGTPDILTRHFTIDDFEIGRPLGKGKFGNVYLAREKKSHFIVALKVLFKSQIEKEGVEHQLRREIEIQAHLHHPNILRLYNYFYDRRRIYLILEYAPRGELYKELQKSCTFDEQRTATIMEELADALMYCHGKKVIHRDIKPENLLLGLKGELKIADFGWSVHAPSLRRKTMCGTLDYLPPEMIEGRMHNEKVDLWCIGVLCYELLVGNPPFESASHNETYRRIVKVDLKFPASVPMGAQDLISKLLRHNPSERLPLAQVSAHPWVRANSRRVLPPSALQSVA

Compound: CC(C)(O)Cn1nnc2cc(Nc3ncc(Cl)c(NC4CCN(c5ccc(C#N)nn5)CC4)n3)ccc21 [Example 62, 6-(4-((5-chloro-2-((1-(2-hydroxy-2-methylpropyl)-1H-benzo[d][1,2,3]triazol-5-yl)amino)pyrimidin-4-yl)amino)piperidin-1-yl)pyridazine-3-carbonitrile]
IC50 [1]: 48 nM | half-life at 5 μM [2]: 192 min | CLint scaled at 5 μM [2]: 9.1 mL/min/kg | CLint scaled at 5 μM [3]: 75.3 mL/min/kg | half-life at 5 μM [3]: 33 min | IC50 [4]: 0.4 nM | IC50 [5]: 2 nM

Compound: N#Cc1ccc(N2CCC(Nc3nc(Nc4cnc5c(c4)ncn5CCO)ncc3Cl)CC2)nc1 [Example 92, 6-(4-((5-chloro-2-((3-(2-hydroxyethyl)-3H-imidazo[4,5-b]pyridin-6-yl)amino)pyrimidin-4-yl)amino)piperidin-1-yl)nicotinonitrile]
Weight Inhibition ratio [6]: 72.30% | thickness (right ear) [6]: 0.319 ± 0.027** mm | Weight (right ear) [6]: 21.444 ± 1.952** mg | thickness Inhibition ratio [6]: 60.03%

Compound: Cn1cnc2cc(Nc3ncc(Cl)c(NC4CCN(c5ccc(C#N)nn5)CC4)n3)ccc21 [Example 50, 6-(4-((5-chloro-2-((1-methyl-1H-benzo[d]imidazol-5-yl)amino)pyrimidin-4-yl)amino)piperidin-1-yl)pyridazine-3-carbonitrile]
half-life at 5 μM [2]: 55.6 min | CLint scaled at 5 μM [2]: 31.3 mL/min/kg | CLint scaled at 5 μM [3]: 58.2 mL/min/kg | half-life at 5 μM [3]: 29.9 min | Clearance (CL) after iv dosing ([7]; iv dosing, dose 1 mg/kg (Ex. 9: 0.6, Ex. 18: 0.5, Ex. 50: 0.96 mg/kg)): 14.2 mL/min/kg | AUC(0-t) [7, 8]: 1210 ng·h/mL | half-life [7, 8]: 63 min | Vd ([7]; rat, plasma, iv dosing, dose 1 mg/kg (Ex. 9: 0.6, Ex. 18: 0.5, Ex. 50: 0.96 mg/kg), read-out: Vss): 1.17 L/kg | bioavailability ([7]; rat, plasma, oral (generally 5 or 10 mg/kg) versus iv dosing, read-out: F (oral bioavailability)): 51.8% | Weight Inhibition ratio [6]: 39.95% | thickness (right ear) [6]: 0.321 ± 0.022** mm | Weight (right ear) [6]: 25.222 ± 1.998** mg | thickness Inhibition ratio [6]: 46.89%

Further lines, with some results ahead:

half-life at 5 μM [2]: 8 min | CLint scaled at 5 μM [2]: 218 mL/min/kg | CLint scaled at 5 μM [3]: 473 mL/min/kg | half-life at 5 μM [3]: 5.3 min | IC50 [4]: 0.9 nM
Compound: CCCn1nnc2cc(Nc3ncc(Cl)c(NC4CCN(c5ccc(C#N)nn5)CC4)n3)ccc21 [Example 65, 6-(4-((5-chloro-2-((1-propyl-1H-benzo[d][1,2,3]triazol-5-yl)amino)pyrimidin-4-yl)amino)piperidin-1-yl)pyridazine-3-carbonitrile]
Weight Inhibition ratio [6]: 46.22% | thickness (right ear) [6]: 0.374 ± 0.022** mm | Weight (right ear) [6]: 26.333 ± 1.958* mg | thickness Inhibition ratio [6]: 38.95%

half-life at 5 μM [2]: 15.1 min | CLint scaled at 5 μM [2]: 115 mL/min/kg | CLint scaled at 5 μM [3]: 1440 mL/min/kg | half-life at 5 μM [3]: 1.7 min | IC50 [4]: 0.5 nM
Compound: CC(C)(O)Cc1cn2ccc(Nc3ncc(Cl)c(NC4CCN(c5ccc(C#N)cn5)CC4)n3)cc2n1 [Example 76, 6-(4-((5-chloro-2-((2-(2-hydroxy-2-methylpropyl)imidazo[1,2-a]pyridin-7-yl)amino)pyrimidin-4-yl)amino)piperidin-1-yl)nicotinonitrile]
Weight Inhibition ratio [6]: 68.40% | thickness (right ear) [6]: 0.252 ± 0.018** mm | Weight (right ear) [6]: 20.000 ± 1.323** mg | thickness Inhibition ratio [6]: 77.86%

IC50 [1]: 163 nM | half-life at 5 μM [2]: 32.5 min | CLint scaled at 5 μM [2]: 53.5 mL/min/kg | CLint scaled at 5 μM [3]: 106 mL/min/kg | half-life at 5 μM [3]: 23.5 min | IC50 [4]: 0.3 nM | IC50 [5]: 17 nM
Compound: CN(C)C(=O)c1nc2cc(Nc3ncc(Cl)c(NC4CCN(c5ccc(C#N)nn5)CC4)n3)ccn2n1 [Example 85, 7-((5-chloro-4-((1-(6-cyanopyridazin-3-yl)piperidin-4-yl)amino)pyrimidin-2-yl)amino)-N,N-dimethyl-[1,2,4]triazolo[1,5-a]pyridine-2-carboxamide]
